Test results as given in patent US8329726B2, “Inhibitors of VEGF receptor and HGF receptor signaling” (MethylGene Inc., priority 2005, dated 2012).
pIC50: −log10 of the molar value.

Key:
[1] = biological target: T1, recombinant human c-Met/HGF receptor (Homo sapiens, UniProt P08581); experiment: In vitro receptor tyrosine kinase assay (DELFIA), c-Met/HGF receptor; type: biochemical; conditions: read-out: CMET IC50
T1 construct: His tag (pBlueBacHis2A vector); made in house; host or cells: Hi-5 cells (Trichoplusia ni), baculovirus
Description: Cell pellets were frozen at −80° C. until purification was performed.
(§1) The coated plates were washed and stored at 4° C. […] After incubation, the kinase reactions were quenched with EDTA and the plates were washed.

[2] = biological target: T2, VEGF receptor KDR (Homo sapiens, UniProt P35968); experiment: In vitro receptor tyrosine kinase assay (DELFIA), VEGF receptor KDR; type: biochemical; conditions: read-out: VEGFR IC50
T2 construct: made in house; host or cells: Sf9 cells (Spodoptera frugiperda), baculovirus
Description: In the case of VEGF receptor KDR a 1.6-kb cDNA corresponding to the catalytic domain of VEGFR2 or KDR (Genbank accession number AF035121 amino acid 806 to 1356) was cloned into the Pst I site of the pDEST20 Gateway vector (Invitrogen) for the production of a GST-tagged version of that enzyme.
The GST-VEGFR2806-1356 protein was expressed in […] (Spodoptera frugiperda) upon infection with recombinant baculovirus construct. […] Cell pellets were frozen at −80° C. until purification was performed.
The supernatant (cell extract) was used as starting material for purification of GST-VEGFR2806-1356.
The supernatant was loaded onto a GST-agarose column (Sigma) equilibrated with PBS pH 7.3. Following a four column volume (CV) wash with PBS pH 7.3+1% Triton X-100 and 4 CV wash with buffer B (50 mM Tris pH 8.0, 20% glycerol and 100 mM NaCl), bound proteins were step eluted with 5 CV of buffer B supplemented with 5 mM DTT and 15 mM glutathion. GST-VEGFR2806-1356 enriched fractions from this chromatography step were pooled based on U.V. trace i.e. fractions with high O.D.280. Final GST-VEGFR2806-1356 protein preparations concentrations were about 0.7 mg/ml with purity approximating 70%.
as §1

[3] = test system: A549; experiment: A549 wound healing inhibition (HGF dependent migration); type: cell-based; conditions: Homo sapiens, A549 cells, read-out: A549 WOUND HEALING INHIB IC50
Source text: (§2) HGF has well known activity in terms of inducing scattering and migration (wound healing) (Wells et al., Cell Motil Cytoskeleton. 2005 November 62(3):180-94; Miura et al., Urology 2001 December 58(6):1064-9; Nishimura et al., Int J Urol. 1998 May 5(3):276-81; Wang et al., Mol Cancer Ther. 2003 November; 2(11):1085-92; and Christensen et al., Cancer Res. 2003 Nov. 1; 63(21):7345-55).

[4] = test system: DU145; experiment: DU145 scattering inhibition (HGF dependent scattering); type: cell-based; conditions: Homo sapiens, DU-145; HGF dependent scattering, DU145 cells; read-out: DU145 SCATTERING INHIB IC50
Source text: as §2

T2 sequence (P35968 806-1356): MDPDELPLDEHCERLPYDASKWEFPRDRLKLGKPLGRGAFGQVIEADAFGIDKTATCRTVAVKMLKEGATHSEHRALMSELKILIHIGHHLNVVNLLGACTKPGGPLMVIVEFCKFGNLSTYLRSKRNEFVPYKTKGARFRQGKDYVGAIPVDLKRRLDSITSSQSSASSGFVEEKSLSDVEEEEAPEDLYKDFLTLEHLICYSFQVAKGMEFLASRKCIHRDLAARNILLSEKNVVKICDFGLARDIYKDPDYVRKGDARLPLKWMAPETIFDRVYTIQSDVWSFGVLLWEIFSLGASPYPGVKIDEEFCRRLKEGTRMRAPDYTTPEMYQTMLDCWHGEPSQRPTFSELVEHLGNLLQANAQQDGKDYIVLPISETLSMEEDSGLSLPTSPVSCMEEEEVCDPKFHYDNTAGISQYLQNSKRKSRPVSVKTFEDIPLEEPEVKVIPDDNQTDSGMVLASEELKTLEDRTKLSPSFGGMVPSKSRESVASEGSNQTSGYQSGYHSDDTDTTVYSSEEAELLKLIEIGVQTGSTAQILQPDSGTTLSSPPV
T1 sequence (P08581 1078-1337): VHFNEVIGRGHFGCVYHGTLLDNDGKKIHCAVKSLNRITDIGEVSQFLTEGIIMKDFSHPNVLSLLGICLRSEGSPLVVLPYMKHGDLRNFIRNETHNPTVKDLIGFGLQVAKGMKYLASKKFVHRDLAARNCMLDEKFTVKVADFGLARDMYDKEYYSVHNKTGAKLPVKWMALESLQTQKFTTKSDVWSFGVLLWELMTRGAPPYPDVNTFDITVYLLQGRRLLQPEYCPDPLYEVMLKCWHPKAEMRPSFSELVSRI

Row | pIC50 [1] | pIC50 [2] | pIC50 [3] | pIC50 [4] | Compound
1 | 6.60 to 7.30 | 6.30 to 6.60 | > 6.00 | 5.30 to 6.00 | Cn1cnc(-c2cc3nccc(Nc4ccc(NC(=O)C5CCN(c6ccccc6)C5=O)cc4F)c3s2)c1 (centres unmarked)
2 | > 7.30 | > 7.30 | 5.30 to 6.00 | > 6.00 | CN1CCN(CCN(C)Cc2ccc(-c3cc4nccc(Oc5ccc(NC(=O)C6CCN(c7ccccc7)C6=O)cc5F)c4s3)cc2)CC1 (centres unmarked)
3 | > 7.30 | > 7.30 | > 6.00 | > 6.00 | CN(C)CCCN(C)Cc1ccc(-c2cc3nccc(Oc4ccc(NC(=O)CC(=O)N(C)c5ccccc5)cc4F)c3s2)cc1
4 | > 7.30 | > 7.30 | > 6.00 | > 6.00 | Cn1cnc(-c2cc3nccc(Nc4ccc(NC(=O)C5(C(=O)Nc6ccc(F)cc6)CC5)cc4F)c3s2)c1
5 | > 7.30 | > 7.30 | 5.30 to 6.00 | > 6.00 | CN1CCN(CCN(C)Cc2ccc(-c3cc4nccc(Oc5ccc(NC(=O)C6(C(=O)Nc7ccc(F)cc7)CC6)cc5F)c4s3)cc2)CC1
6 | < 6.30 | > 7.30 | 5.30 to 6.00 | 5.30 to 6.00 | CN1CCN(C(=O)C2(C(=O)Nc3ccc(Oc4ccnc5cc(-c6cn(C)cn6)sc45)c(F)c3)CC2)c2ccccc21
7 | < 6.30 | 6.60 to 7.30 | > 6.00 | 5.30 to 6.00 | CN(C(=O)C1(C(=O)Nc2ccc(Oc3ccnc4cc(-c5cn(C)cn5)sc34)c(F)c2)CC1)c1ccccc1
8 | 6.60 to 7.30 | 6.30 to 6.60 | 5.30 to 6.00 | 5.30 to 6.00 | Cn1cnc(-c2cc3nccc(Oc4ccc(NC(=O)C5(C)CCN(c6ccccc6)C5=O)cc4F)c3s2)c1 (centres unmarked)
9 | > 7.30 | > 7.30 | > 6.00 | > 6.00 | CCn1cnc(-c2cc3nccc(Oc4ccc(NC(=O)C5CCN(c6ccccc6)C5=O)cc4F)c3s2)c1 (centres unmarked)
10 | > 7.30 | > 7.30 | > 6.00 | > 6.00 | CN(C)CCn1cnc(-c2cc3nccc(Oc4ccc(NC(=O)N5CCN(c6ccccc6)C5=O)cc4F)c3s2)c1
11 | 6.60 to 7.30 | > 7.30 | 5.30 to 6.00 | 5.30 to 6.00 | CN1CCN(Cc2ccc(-c3cc4nccc(Oc5ccc(NC(=O)C6CCN(c7ccccc7)C6=O)cc5F)c4s3)nc2)CC1 (centres unmarked)
12 | > 7.30 | > 7.30 | 5.30 to 6.00 | > 6.00 | CN1CCN(CCN(C)Cc2ccc(-c3cc4nccc(Oc5ccc(NC(=O)CC(=O)N(C)c6ccc(F)cc6)cc5F)c4s3)cc2)CC1
13 | 6.60 to 7.30 | > 7.30 | 5.30 to 6.00 | > 6.00 | CN(C)[C@H]1CCN(Cc2ccc(-c3cc4nccc(Oc5ccc(NC(=O)CC(=O)Nc6ccccc6)cc5F)c4s3)cc2)C1
14 | > 7.30 | > 7.30 | < 5.00 | 5.30 to 6.00 | CN1CCN(CCN(C)Cc2ccc(-c3cc4nccc(Oc5ccc(NC(=O)N6CCN(c7ccccc7)C6=O)cc5F)c4s3)cc2)CC1
15 | 6.30 to 6.60 | > 7.30 | < 5.00 | < 5.00 | CCn1cnc(-c2cc3nccc(Oc4ccc(NC(=O)C5(C(=O)N(C)c6ccc(F)cc6)CC5)cc4F)c3s2)c1
16 | 6.60 to 7.30 | > 7.30 | < 5.00 | 5.30 to 6.00 | CN1CCN(Cc2ccc(-c3cc4ncnc(Oc5ccc(NC(=O)CC(=O)Nc6ccccc6)cc5F)c4s3)cc2)CC1
17 | 6.60 to 7.30 | < 6.30 | 5.30 to 6.00 | 5.30 to 6.00 | CN(c1ccc(NC(=O)C2CCN(c3ccccc3)C2=O)cc1F)c1ccnc2cc(-c3cn(C)cn3)sc12 (centres unmarked)
18 | 6.60 to 7.30 | > 7.30 | 5.30 to 6.00 | 5.30 to 6.00 | CN1CCN(Cc2ccc(-c3cc4nccc(Oc5ccc(NC(=O)C6CCN(c7ccccc7)C6=O)cc5F)c4s3)cc2)CC1 (centres unmarked)
19 | > 7.30 | > 7.30 | 5.30 to 6.00 | 5.30 to 6.00 | CN1CCN(C(=O)CC(=O)Nc2ccc(Oc3ccnc4cc(-c5cn(C)cn5)sc34)c(F)c2)c2ccccc21
20 | > 7.30 | > 7.30 | 5.30 to 6.00 | > 6.00 | CN1CCN(Cc2ccc(-c3cc4nccc(Oc5ccc(NC(=O)CC(=O)Nc6ccccc6)cc5F)c4s3)nc2)CC1
21 | > 7.30 | > 7.30 | > 6.00 | > 6.00 | CN1CCN(Cc2ccc(-c3cc4nccc(Oc5ccc(NC(=O)C6(C(=O)Nc7ccc(F)cc7)CC6)cc5F)c4s3)cc2)CC1

Row | pIC50 [1] | pIC50 [2] | pIC50 [3] | pIC50 [4] | Compound
22 | > 7.30 | 6.60 to 7.30 | > 6.00 | > 6.00 | Cn1cnc(-c2cc3nccc(Nc4ccc(NC(=O)C5(C(=O)Nc6ccccc6)CC5)cc4F)c3s2)c1
23 | 6.60 to 7.30 | 6.30 to 6.60 | > 6.00 | 5.30 to 6.00 | Cn1cnc(-c2cc3nccc(Oc4ccc(NC(=O)C5CCN(c6ccccc6F)C5=O)cc4F)c3s2)c1 (centres unmarked)
24 | 6.60 to 7.30 | > 7.30 | 5.30 to 6.00 | > 6.00 | O=C(Nc1ccc(Oc2ccnc3cc(-c4cn(CCN5CCCC5)cn4)sc23)c(F)c1)C1CCN(c2ccccc2)C1=O (centres unmarked)
25 | > 7.30 | > 7.30 | > 6.00 | > 6.00 | CN1CCN(Cc2ccc(-c3cc4nccc(Oc5ccc(NC(=O)N6CCN(c7ccccc7)C6=O)cc5F)c4s3)cc2)CC1
26 | 6.60 to 7.30 | > 7.30 | 5.30 to 6.00 | 5.30 to 6.00 | CCN(C(=O)CC(=O)Nc1ccc(Oc2ccnc3cc(-c4cn(CC)cn4)sc23)c(F)c1)c1ccccc1
27 | 6.30 to 6.60 | 6.30 to 6.60 | 5.30 to 6.00 | 5.30 to 6.00 | Cn1cnc(-c2cc3nccc(Oc4ccc(NC(=O)C5CCN(c6cccnc6)C5=O)cc4F)c3s2)c1 (centres unmarked)
28 | > 7.30 | > 7.30 | 5.30 to 6.00 | > 6.00 | O=C(CC(=O)Nc1ccc(Oc2ccnc3cc(-c4ccc(CN5CCNCC5)cc4)sc23)c(F)c1)Nc1ccccc1
29 | > 7.30 | > 7.30 | 5.30 to 6.00 | > 6.00 | CN1CC=C(c2cc3nccc(Oc4ccc(NC(=O)C5(C(=O)Nc6ccccc6)CC5)cc4F)c3s2)CC1
30 | > 7.30 | > 7.30 | > 6.00 | > 6.00 | CN1CCN(Cc2ccc(-c3cc4nccc(Oc5ccc(NC(=O)C6(C(=O)Nc7ccccc7)CC6)cc5F)c4s3)cc2)CC1
31 | 6.60 to 7.30 | < 6.30 | 5.30 to 6.00 | 5.30 to 6.00 | COc1cccc(Nc2cc3nccc(Oc4ccc(NC(=O)CC(=O)Nc5ccccc5)cc4F)c3s2)c1
32 | > 7.30 | > 7.30 | > 6.00 | > 6.00 | O=C(CC(=O)Nc1ccc(Oc2ccnc3cc(-c4cccc[n+]4[O-])sc23)c(F)c1)Nc1ccccc1
33 | > 7.30 | > 7.30 | > 6.00 | > 6.00 | Cn1cnc(-c2cc3nccc(Oc4ccc(NC(=O)N5CCN(c6ccc(F)cc6)C5=O)cc4F)c3s2)c1
34 | > 7.30 | > 7.30 | > 6.00 | > 6.00 | O=C(Nc1ccc(Oc2ccnc3cc(-c4cn(CCN5CCCC5)cn4)sc23)c(F)c1)N1CCN(c2ccccc2)C1=O
35 | 6.30 to 6.60 | < 6.30 | < 5.00 | < 5.00 | CC(C)N(C(=O)CC(=O)Nc1ccc(Oc2ccnc3cc(C4=CCN(C)CC4)sc23)c(F)c1)c1ccccc1
36 | > 7.30 | > 7.30 | > 6.00 | > 6.00 | Cn1ccnc1-c1cc2nccc(Oc3ccc(NC(=O)N4CCN(c5ccccc5)C4=O)cc3F)c2s1
37 | > 7.30 | 6.60 to 7.30 | > 6.00 | > 6.00 | CN1CC=C(c2cc3nccc(Oc4ccc(NC(=O)N5CCN(c6ccccc6)C5=O)cc4F)c3s2)CC1
38 | > 7.30 | 6.60 to 7.30 | > 6.00 | > 6.00 | Cn1ccnc1-c1cc2nccc(Sc3ccc(NC(=O)N4CCN(c5ccccc5)C4=O)cc3)c2s1
39 | > 7.30 | > 7.30 | > 6.00 | > 6.00 | CCn1cnc(-c2cc3nccc(Oc4ccc(NC(=O)CC(=O)N5CCc6ccccc65)cc4F)c3s2)c1
40 | 6.60 to 7.30 | 6.60 to 7.30 | 5.30 to 6.00 | 5.30 to 6.00 | CCn1cnc(-c2cc3nccc(Oc4ccc(NC(=O)CC(Nc5ccccc5)C(F)(F)F)cc4F)c3s2)c1 (centres unmarked)
41 | > 7.30 | > 7.30 | > 6.00 | > 6.00 | CCn1cnc(-c2cc3nccc(Oc4ccc(NC(=O)CC(=O)N5CCOc6ccccc65)cc4F)c3s2)c1
